#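 Assay format: 96-well plates, 48-hour exposure. TGI: concentration producing complete growth inhibition.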
# Columns and labels:
# Assay in all cases: NCI-60 cell line screen, 48 h
# [1] = test system: MCF7 breast
# [2] = test system: M14 melanoma
# [3] = test system: MDA-N
# [4] = test system: OVCAR-4 ovarian
# [5] = test system: BT-549 breast
# [6] = test system: SF-268 CNS
# [7] = test system: COLO 205 colon
# [8] = test system: DU-145 prostate
# [9] = test system: SR leukemia
# [10] = test system: IGROV1 ovarian
# [11] = test system: UACC-257 melanoma
# [12] = test system: ACHN renal
# [13] = test system: HS 578T breast
# [14] = test system: MOLT-4 leukemia
# [15] = test system: NCI-H460 lung
# [16] = test system: MDA-MB-435
# [17] = test system: OVCAR-8 ovarian
# [18] = test system: SN12C renal
# [19] = test system: HCT-116 colon
# [20] = test system: HCC-2998 colon
Compound,TGI [1] [µM],TGI [2] [µM],TGI [3] [µM],TGI [4] [µM],TGI [5] [µM],TGI [6] [µM],TGI [7] [µM],TGI [8] [µM],TGI [9] [µM],TGI [10] [µM],TGI [11] [µM],TGI [12] [µM],TGI [13] [µM],TGI [14] [µM],TGI [15] [µM],TGI [16] [µM],TGI [17] [µM],TGI [18] [µM],TGI [19] [µM],TGI [20] [µM]
O=C(CCCn1cnc([N+](=O)[O-])n1)NCCn1ccnc1[N+](=O)[O-],> 100,> 100,> 100,> 100,> 100,> 100,> 100,> 100,> 100,> 100,> 100,> 100,> 100,> 100,> 100,–,–,–,–,–
O=C(Nc1ccccc1F)c1c(O)nc2sccn2c1=O,> 10,> 10,> 10,> 10,–,> 10,> 10,> 10,> 10,> 10,–,> 10,> 10,> 10,> 10,> 10,> 10,> 10,> 10,> 10
N/N=C(\C(=O)Nc1c(Cl)cc([N+](=O)[O-])cc1Cl)C(c1cnc2ccc([N+](=O)[O-])cc2n1)[N+](=O)[O-] (stereo not drawn),–,–,–,> 100,–,> 100,> 100,–,> 100,> 100,> 100,> 100,–,> 100,> 100,–,> 100,> 100,> 100,> 100
COc1ccc2[nH]c(C(=O)N3CC(CCl)c4ccc(N)cc43)cc2c1 (stereo not drawn),> 39.1,0.319,0.347,0.609,6.97,–,–,–,> 100,–,–,0.375,1.32,> 100,3.24,0.405,> 68.9,1.62,–,0.383
CC(=O)OC(Cc1cc(C=C(C(F)(F)F)C(F)(F)F)cc(C)n1)(C(F)(F)F)C(F)(F)F,0.97,4.08,–,4.76,4.96,5.81,2.99,6.84,–,1.58,–,2.84,18,–,5.09,2.83,> 100,3.16,2.91,13.3
COC(=O)/C=C\Sc1ccn(/C=C\C(=O)OC)c(=S)n1,36.5,> 100,> 100,35.3,44.9,65.9,> 100,> 100,38.8,35.2,> 100,32.2,78.9,–,–,86.6,38.1,82.9,–,> 100

# — PubChem BioAssay (NCI)
